{"source": "patent US11840548B2", "about": "“UV-curable phosphonium small molecules as antimicrobial coatings and surface active additives” (SCI RESOURCE PLATFORM INC., priority 2020, dated 2023)", "key": {"[1]": {"tested_on": "E. coli (ATCC strain 11229)", "assay": "large drop inoculum (LDI) test, E. coli", "assay_type": "cell-based", "details": "UV-cured coating on polystyrene plastic; after 24 hours in contact with the surface", "source_text": "To guarantee all inoculated cells enter into contact with the test surface, […], serially diluted, plated out onto tryptic soy agar, and enumerated to assess the extent of cell survival and thus antimicrobial efficacy of the test surfaces. Arthrobacter (IAI-3) and E. coli (ATCC strain 11229) were chosen as representative Gram-positive and Gram-negative bacterial strains.\nThe efficacy of these materials against the representative strains of Gram-negative and Gram-positive bacteria lead us to probe the antimicrobial capability of these materials after being subject to abrasive processes, to determine whether tethered sub-surface phosphonium observed by XPS can translate to materials with antimicrobial properties after the surface has be abraded. The process of using an aqueous solution to wipe or rub away dirt or bacteria is one fundamental to sanitation,^50 and as such the solvent double rub protocol described in ASTM D5402^51 was chosen as a representative test of durability. Water was chosen as the solvent due to its ubiquity in cleaning solutions. The same extruded polypropylene samples subjected to the LDI were first rinsed with copious amounts of sterile distilled water, then vortexed for 5 minutes in saline to remove any bacterial debris from the initial test. After another rinse step, the pieces were subjected to 100 solvent double rubs on the tested side using a cotton cloth saturated with distilled water, the amount of force of each rub measured to be between 1000 g and 1600 g. After 100 double rubs, the pieces were rinsed, sterilized under UV light, and the abraded sides were subject to another loading of bacteria."}, "[2]": {"tested_on": "Arthrobacter sp. (IAI-3)", "assay": "large drop inoculum (LDI) test, Arthrobacter", "assay_type": "cell-based", "details": "UV-cured coating on polystyrene plastic; after 3 hours in contact with the surface", "description": "To guarantee all inoculated cells enter into contact with the test surface, the samples with the droplet are subjected to a standardized 3 h drying period. The cells are then recovered, serially diluted, plated out onto tryptic soy agar, and enumerated to assess the extent of cell survival and thus antimicrobial efficacy of the test surfaces. Arthrobacter (IAI-3) and E. coli (ATCC strain 11229) were chosen as representative Gram-positive and Gram-negative bacterial strains."}, "[3]": {"assay": "advancing water contact angle measurement", "assay_type": "physicochemical", "details": "UV-cured phosphonium coating on polystyrene; triplicate", "description": "Advancing water contact angle (θC) measurements were performed on the coated pieces to further probe the relationship between the structure of the phosphonium small molecules coated on the substrate and their macroscopic properties as coatings. Measurements for θC trend with charge density results (Table 1).\nThus, after the coating step, a pre-extrusion UV-cure process was introduced to immobilize the phosphoniums to the plastic bead surface. Extrusion of these pre-cured beads at 220° C. into a mold pre-heated to 100° C. yielded the tributylphosphonium-containing plastic PP-2, triphenylphosphonium-containing PP-3, (FIG. 8) and perfluoroalkylphosphonium-containing PP-4 as off-white coloured “dogbone” pieces. The discoloration was due to the amber or off-white natural coloring of the phosphoniums added to the melt, and not UV or heat exposure. The effect of incorporating each phosphonium at 1% was quantified by advancing WCA (Table 1). […] FIG. 1 is a schematic illustration showing a cross section of antimicrobial-enriched plastic with sub-surface phosphonium, which upon abrasion is exposed and available to combat microbial growth."}}, "note": "“Also recorded” adds a separate entry of the source.", "data": [{"smiles": "C[P+](C)(C)CCCOc1ccc(C(=O)c2ccccc2)cc1.[Br-]", "note": "[phosphonium 1]", "values": [{"measurement": "reduction of viable Gram-negative E. coli cells", "setting": "[1]", "result": "failing to reduce bacterial survivability; also recorded: lack of observed antimicrobial activity"}, {"measurement": "reduction of viable Gram-positive Arthrobacter cells", "setting": "[2]", "result": "failing to reduce bacterial survivability; also recorded: lack of observed antimicrobial activity"}, {"measurement": "θc, advancing water contact angle", "setting": "[3]", "result": "71.9 ± 5.1", "unit": "deg"}]}, {"smiles": "CCCC[P+](CCCC)(CCCC)CCCOc1ccc(C(=O)c2ccccc2)cc1.[Br-]", "note": "[phosphonium 2]", "values": [{"measurement": "reduction of viable Gram-negative E. coli cells", "setting": "[1]", "result": "full reductions"}, {"measurement": "reduction of viable Gram-positive Arthrobacter cells", "setting": "[2]", "result": "full reductions"}, {"measurement": "θc, advancing water contact angle", "setting": "[3]", "result": "36.4±11.0", "unit": "deg"}]}, {"smiles": "O=C(c1ccccc1)c1ccc(OCCC[P+](CCC(F)(F)C(F)(F)C(F)(F)C(F)(F)C(F)(F)C(F)(F)F)(c2ccccc2)c2ccccc2)cc1.[Br-]", "note": "[phosphonium 4]", "values": [{"measurement": "reduction of viable Gram-negative E. coli cells", "setting": "[1]", "result": "full reductions"}, {"measurement": "reduction of viable Gram-positive Arthrobacter cells", "setting": "[2]", "result": "full reductions"}, {"measurement": "θc, advancing water contact angle", "setting": "[3]", "result": "68.0±2.0", "unit": "deg"}]}, {"smiles": "O=C(c1ccccc1)c1ccc(OCCC[P+](c2ccccc2)(c2ccccc2)c2ccccc2)cc1.[Br-]", "note": "[phosphonium 3]", "values": [{"measurement": "reduction of viable Gram-negative E. coli cells", "setting": "[1]", "result": "full reductions"}, {"measurement": "reduction of viable Gram-positive Arthrobacter cells", "setting": "[2]", "result": "full reductions"}, {"measurement": "θc, advancing water contact angle", "setting": "[3]", "result": "63.5±5.8", "unit": "deg"}]}]}
